Experiments:
[1] = molecular target: T1, Aryl hydrocarbon receptor (Mus musculus, UniProt P30561); experiment: Displacement of [3H]TCDD from mouse AhR expressed in mouse Hepa1c1c7 cells cytosol incubated for 2 hrs by competitive radioligand binding assay; format: subcellular
T1 sequence (P30561 whole entry): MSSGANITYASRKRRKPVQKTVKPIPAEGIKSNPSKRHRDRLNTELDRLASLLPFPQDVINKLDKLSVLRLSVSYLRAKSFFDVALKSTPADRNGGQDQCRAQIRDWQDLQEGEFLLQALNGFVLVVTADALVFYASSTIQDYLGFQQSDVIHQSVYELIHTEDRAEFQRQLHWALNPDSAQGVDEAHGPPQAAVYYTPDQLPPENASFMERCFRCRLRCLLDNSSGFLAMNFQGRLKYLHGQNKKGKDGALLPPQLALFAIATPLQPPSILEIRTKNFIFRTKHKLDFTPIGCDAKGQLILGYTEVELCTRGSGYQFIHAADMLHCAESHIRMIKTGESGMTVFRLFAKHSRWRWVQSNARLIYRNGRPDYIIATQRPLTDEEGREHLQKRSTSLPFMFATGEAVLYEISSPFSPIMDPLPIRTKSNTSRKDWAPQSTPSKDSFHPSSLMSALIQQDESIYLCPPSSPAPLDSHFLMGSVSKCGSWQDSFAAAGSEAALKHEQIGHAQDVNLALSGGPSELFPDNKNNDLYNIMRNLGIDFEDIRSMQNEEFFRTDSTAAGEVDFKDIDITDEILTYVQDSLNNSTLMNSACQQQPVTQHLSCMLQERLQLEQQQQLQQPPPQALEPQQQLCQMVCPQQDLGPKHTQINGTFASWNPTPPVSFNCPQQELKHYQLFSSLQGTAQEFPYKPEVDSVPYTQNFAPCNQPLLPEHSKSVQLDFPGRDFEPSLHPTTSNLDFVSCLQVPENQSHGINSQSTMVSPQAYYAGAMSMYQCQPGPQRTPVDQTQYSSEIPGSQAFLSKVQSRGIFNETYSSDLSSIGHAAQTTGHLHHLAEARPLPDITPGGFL

[2] = molecular target: T2, Aryl hydrocarbon receptor (Homo sapiens, UniProt P35869); experiment: Agonist activity at AhR in human AZ-AHR reporter cell derived from human HepG2 cells assessed as increase in luciferase activity at 1 uM measured after 8 to 24 hrs; format: cell-based; settings: TDE = time-dependent effect, time 8-24 hrs
T2 sequence (P35869 whole entry): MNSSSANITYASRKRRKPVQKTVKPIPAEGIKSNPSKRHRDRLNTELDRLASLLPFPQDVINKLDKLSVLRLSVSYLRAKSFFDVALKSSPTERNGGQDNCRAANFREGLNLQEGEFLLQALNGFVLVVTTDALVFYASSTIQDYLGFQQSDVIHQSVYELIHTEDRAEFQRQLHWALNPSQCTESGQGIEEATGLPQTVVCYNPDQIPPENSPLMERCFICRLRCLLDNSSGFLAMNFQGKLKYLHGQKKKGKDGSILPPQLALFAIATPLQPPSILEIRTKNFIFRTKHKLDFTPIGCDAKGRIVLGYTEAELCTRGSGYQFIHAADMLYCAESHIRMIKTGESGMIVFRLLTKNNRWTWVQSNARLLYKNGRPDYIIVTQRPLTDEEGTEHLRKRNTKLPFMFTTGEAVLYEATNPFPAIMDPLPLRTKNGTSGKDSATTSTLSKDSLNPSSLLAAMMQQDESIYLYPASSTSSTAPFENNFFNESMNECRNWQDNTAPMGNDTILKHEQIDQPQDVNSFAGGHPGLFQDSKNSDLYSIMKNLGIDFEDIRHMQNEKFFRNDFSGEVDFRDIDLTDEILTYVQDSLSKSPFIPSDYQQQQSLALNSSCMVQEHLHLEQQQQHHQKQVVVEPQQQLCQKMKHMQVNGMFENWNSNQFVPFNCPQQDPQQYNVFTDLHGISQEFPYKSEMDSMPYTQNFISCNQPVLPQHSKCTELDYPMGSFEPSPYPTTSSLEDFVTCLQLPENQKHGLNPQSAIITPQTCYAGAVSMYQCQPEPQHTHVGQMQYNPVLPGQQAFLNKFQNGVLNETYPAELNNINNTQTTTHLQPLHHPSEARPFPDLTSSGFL

[3] = molecular target: T1, Aryl hydrocarbon receptor; experiment: Agonist activity at AhR in mouse Hepa2Dluc cells; format: cell-based
[4] = Metabolic stability in mouse plasma assessed as half life by LC/MS analysis; format: ADME, cell-free
[5] = molecular target: T3, AhR (aryl hydrocarbon receptor) (Homo sapiens, UniProt P35869); experiment: Agonist activity at AhR (unknown origin) transfected in human AZ-AHR reporter cells derived from human HepG2 cells assessed as relative efficacy incubated for 4 hrs by luciferase reporter gene assay relative to control; format: cell-based; settings: read-out: Efficacy
T3 sequence (P35869 whole entry): T2 sequence (P35869 whole entry)

[6] = molecular target: T2, Aryl hydrocarbon receptor; experiment: Agonist activity at AhR (unknown origin) transfected in human AZ-AHR reporter cells derived from human HepG2 cells incubated for 4 hrs by luciferase reporter gene assay; format: cell-based; settings: for Activity: human, az-ahr, 4 h, DDE = dose-dependent effect
[7] = molecular target: T2, Aryl hydrocarbon receptor; experiment: Agonist activity at AhR in human LS180 cell lysates assessed as induction of AhR-ARNT heterodimerization at 1 uM incubated for 90 mins by co-immunoprecipitation assay; format: subcellular; settings: ls180, 1.5 h
[8] = molecular target: T2, Aryl hydrocarbon receptor; experiment: Agonist activity at AhR in human LS180 cells assessed as binding of AhR to CYP1A1 promoter gene at 1 uM incubated for 90 mins by chromatin immunoprecipitation assay; format: cell-based; settings: ls180, 1.5 h
[9] = molecular target: T2, Aryl hydrocarbon receptor; experiment: Agonist activity at AhR in human LS180 cells assessed as induction of nuclear translocation at 1 uM incubated for 90 mins by DAPI staining based confocal fluorescence microscopic analysis; format: cell-based; settings: ls180, 1.5 h
[10] = molecular target: T4, Nuclear receptor subfamily 1 group I member 2 (Homo sapiens, UniProt O75469); experiment: Displacement of fluorescence labeled ligand from human PXR ligand binding domain by Lanthascreen TR-FRET assay
T4 sequence (O75469 whole entry): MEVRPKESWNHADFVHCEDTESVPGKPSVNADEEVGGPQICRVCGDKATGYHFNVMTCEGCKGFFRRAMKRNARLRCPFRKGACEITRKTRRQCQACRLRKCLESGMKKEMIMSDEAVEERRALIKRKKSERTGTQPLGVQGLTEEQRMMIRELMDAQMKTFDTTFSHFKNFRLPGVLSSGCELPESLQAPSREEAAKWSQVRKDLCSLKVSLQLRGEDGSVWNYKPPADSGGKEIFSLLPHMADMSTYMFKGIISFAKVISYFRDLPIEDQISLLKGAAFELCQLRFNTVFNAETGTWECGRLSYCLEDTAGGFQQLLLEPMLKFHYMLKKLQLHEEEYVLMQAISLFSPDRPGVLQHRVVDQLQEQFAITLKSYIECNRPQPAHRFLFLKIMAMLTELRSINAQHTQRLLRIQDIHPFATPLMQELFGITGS

[11] = Stability in cell-free culture media assessed as parent compound remaining at 1 uM incubated for 12 hrs in presence of serum by LC/MS analysis; format: physicochemical; settings: cell-free culture media with serum, read-out: Stability
[12] = molecular target: T4, Nuclear receptor subfamily 1 group I member 2; experiment: Agonist activity at human PXR transfected in human LS180 cells cotransfected with luciferase reporter plasmid p2A4-Luc assessed as transcriptional activity incubated for 24 hrs by luciferase reporter assay; format: cell-based

COC(=O)c1csc(C(=O)c2c[nH]c3ccccc23)n1
Ki [1]: 10 nM
Activity [2]: Tde
EC50 [3]: 10 nM
half-life [4]: 44 min
Emax at 4 h [5]: 131%

C=CCn1cc(C(=O)c2nccs2)c2ccccc21
Activity [6]: Dde
Emax at 4 h [5]: 63.9%

COc1cc(Cn2cc(C(=O)c3nccs3)c3ccccc32)cc(OC)c1
Activity [6]: Dde
Emax at 4 h [5]: 57%

COc1ccc(Cn2cc(C(=O)c3nccs3)c3ccccc32)cc1
EC50 [6]: 110 nM
Ki [1]: 800 nM
Activity [7]: Active
Activity [2]: Tde
Activity [8]: Active
Activity [9]: Active
Emax at 4 h [5]: 133%

O=C(c1nccs1)c1cn(C(=O)c2ccccc2)c2ccccc12
Activity [6]: Dde
Emax at 4 h [5]: 81.4%

Cn1cc(C(=O)c2nccs2)c2ccccc21
Activity [6]: Dde
Emax at 4 h [5]: 62.9%

CC(=O)n1cc(C(=O)c2nccs2)c2ccccc21
Activity [6]: Dde
Emax at 4 h [5]: 106%

CNC(=O)c1csc(C(=O)c2c[nH]c3ccccc23)n1
IC50 [10]: 32100 nM
remaining at 12 h, 1 µM [11]: 5%
EC50 [12]: 12000 nM
